The target in assay [1] is Recombinant, full length human FLAG-tagged ATM (Homo sapiens (Human), UniProt Q13315). Nature of the assay: ATM ELISA for p53 S15 phosphorylation. In kind it is biochemical. The note with it: 0.75 nM ATM, 25 nM p53, 10 μM ATP, 30 min at 20° C.; read-out: ATM BIO IC50. The essentials:
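ELISA of p53 S15 phosphorylation by 0.75 nM full-length FLAG-ATM, with 25 nM myc-p53 and 10 μM ATP in HEPES pH 7.5 with Mg/Mn, 30 min at 20° C. Reactions were EDTA-stopped, captured on anti-myc and detected with anti-pS15/HRP-TMB at 450 nm.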
(In general: ELISA stands for enzyme-linked immunosorbent assay.)

A further assay deals with cellular ATM activity (Homo sapiens (Human), UniProt Q13315). Nature of the assay: Inhibition of cellular ATM activity: etoposide-stimulated KAP1 phosphorylation in U20S cells. It counts as cell-based. To be noted: 100 μM etoposide, 60 min, read-out: ATM CELL IC50.

As a reminder, the IC50 is the concentration needed to halve the response being measured.

Recombinant, full length human FLAG-tagged ATM, sequence (Q13315 whole entry): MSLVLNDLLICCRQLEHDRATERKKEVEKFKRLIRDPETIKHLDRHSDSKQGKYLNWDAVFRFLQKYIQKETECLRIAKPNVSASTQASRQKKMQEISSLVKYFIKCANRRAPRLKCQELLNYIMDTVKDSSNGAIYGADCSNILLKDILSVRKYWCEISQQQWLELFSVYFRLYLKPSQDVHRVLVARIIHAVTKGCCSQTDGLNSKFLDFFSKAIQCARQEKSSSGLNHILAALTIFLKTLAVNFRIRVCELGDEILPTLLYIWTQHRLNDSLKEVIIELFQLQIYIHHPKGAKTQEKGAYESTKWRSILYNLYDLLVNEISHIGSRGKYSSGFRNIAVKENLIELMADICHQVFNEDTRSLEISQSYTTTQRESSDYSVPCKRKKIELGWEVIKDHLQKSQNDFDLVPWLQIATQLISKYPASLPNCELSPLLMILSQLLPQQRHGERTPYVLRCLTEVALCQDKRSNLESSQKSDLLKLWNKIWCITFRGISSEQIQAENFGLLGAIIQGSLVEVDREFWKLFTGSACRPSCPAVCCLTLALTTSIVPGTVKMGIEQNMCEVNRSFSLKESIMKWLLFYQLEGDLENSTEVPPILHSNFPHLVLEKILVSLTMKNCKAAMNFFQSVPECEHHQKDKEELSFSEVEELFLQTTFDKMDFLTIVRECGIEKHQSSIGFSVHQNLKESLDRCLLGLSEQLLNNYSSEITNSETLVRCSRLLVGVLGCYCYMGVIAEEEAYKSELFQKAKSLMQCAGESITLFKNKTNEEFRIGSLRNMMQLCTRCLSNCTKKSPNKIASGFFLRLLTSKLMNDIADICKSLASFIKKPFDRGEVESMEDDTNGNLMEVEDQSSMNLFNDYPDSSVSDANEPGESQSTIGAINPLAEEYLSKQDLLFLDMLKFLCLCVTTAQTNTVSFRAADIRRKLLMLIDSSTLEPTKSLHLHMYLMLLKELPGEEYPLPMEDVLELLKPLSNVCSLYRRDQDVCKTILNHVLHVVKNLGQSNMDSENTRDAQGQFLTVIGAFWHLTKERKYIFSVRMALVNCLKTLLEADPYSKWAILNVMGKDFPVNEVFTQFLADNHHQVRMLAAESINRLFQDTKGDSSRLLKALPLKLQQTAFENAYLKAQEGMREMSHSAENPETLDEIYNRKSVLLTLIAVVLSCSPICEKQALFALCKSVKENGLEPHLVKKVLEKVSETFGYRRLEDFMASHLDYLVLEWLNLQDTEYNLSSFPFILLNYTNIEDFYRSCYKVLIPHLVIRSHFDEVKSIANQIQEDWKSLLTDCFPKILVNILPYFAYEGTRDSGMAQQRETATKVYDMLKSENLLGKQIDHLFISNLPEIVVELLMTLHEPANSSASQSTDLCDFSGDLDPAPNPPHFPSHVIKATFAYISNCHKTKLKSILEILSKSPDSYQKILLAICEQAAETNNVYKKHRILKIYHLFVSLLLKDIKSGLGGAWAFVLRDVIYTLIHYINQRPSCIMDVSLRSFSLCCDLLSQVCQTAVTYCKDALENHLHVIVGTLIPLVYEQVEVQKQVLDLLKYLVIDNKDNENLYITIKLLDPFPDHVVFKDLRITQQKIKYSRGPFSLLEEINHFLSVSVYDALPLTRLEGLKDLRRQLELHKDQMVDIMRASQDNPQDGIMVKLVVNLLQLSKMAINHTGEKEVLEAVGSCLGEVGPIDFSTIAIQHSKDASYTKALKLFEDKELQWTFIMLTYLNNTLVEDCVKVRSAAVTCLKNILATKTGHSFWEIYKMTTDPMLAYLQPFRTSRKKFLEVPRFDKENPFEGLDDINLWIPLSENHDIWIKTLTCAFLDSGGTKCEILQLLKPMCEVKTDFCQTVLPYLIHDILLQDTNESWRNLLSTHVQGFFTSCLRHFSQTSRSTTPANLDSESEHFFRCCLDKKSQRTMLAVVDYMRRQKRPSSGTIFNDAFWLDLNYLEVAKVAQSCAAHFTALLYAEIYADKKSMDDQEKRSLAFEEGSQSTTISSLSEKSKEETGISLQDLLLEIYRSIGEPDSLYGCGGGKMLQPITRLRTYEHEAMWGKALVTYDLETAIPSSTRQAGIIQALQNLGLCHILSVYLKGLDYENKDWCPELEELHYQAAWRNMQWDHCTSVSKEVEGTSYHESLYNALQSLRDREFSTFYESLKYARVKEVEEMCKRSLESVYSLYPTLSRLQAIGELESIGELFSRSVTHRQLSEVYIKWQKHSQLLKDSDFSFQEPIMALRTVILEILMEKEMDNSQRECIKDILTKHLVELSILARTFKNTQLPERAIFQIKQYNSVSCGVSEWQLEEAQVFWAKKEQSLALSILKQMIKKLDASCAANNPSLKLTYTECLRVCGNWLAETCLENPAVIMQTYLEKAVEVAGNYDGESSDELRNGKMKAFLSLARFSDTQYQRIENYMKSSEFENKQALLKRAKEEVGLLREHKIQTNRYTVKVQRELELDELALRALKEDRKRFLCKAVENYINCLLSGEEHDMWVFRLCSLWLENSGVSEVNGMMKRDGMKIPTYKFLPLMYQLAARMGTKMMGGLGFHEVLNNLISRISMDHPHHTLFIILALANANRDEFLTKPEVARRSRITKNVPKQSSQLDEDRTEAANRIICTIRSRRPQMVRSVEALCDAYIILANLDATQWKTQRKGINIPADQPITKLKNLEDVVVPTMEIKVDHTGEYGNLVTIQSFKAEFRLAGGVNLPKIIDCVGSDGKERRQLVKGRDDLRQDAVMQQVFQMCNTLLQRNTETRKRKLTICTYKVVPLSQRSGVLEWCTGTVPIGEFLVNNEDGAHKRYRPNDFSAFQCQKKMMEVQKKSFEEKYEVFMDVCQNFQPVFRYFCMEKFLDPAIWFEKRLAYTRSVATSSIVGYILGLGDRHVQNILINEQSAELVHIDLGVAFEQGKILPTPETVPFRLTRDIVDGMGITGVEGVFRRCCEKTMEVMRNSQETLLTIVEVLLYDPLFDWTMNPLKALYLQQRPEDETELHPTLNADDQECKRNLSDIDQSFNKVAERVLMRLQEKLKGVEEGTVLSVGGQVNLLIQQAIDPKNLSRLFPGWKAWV
cellular ATM activity, sequence (Q13315 whole entry): as above

For `O=c1cc(N2CCOCC2)cc(N2CCC[C@@H]2Cc2ccc(F)cc2)[nH]1` [Example 16, (R)-6-(2-(4-fluorobenzyl)pyrrolidin-1-yl)-4-morpholino pyridin-2(1H)-one], the figures for the half-inhibitory concentration (IC50) (in assay [1]; on cellular ATM activity) were 89.4 nM and 4160 nM, respectively.

Take `C[C@H]1CCN(c2nc(N3CCOCC3)cc(=O)[nH]2)[C@H]1Cc1ccccc1` [Example 261, 2-((2S,3S)-2-benzyl-3-methylpyrrolidin-1-yl)-6-morpholinopyrimidin-4(3H)-one]: the values for the IC50 (in assay [1]; at cellular ATM activity) were 61.3 nM and 3050 nM, respectively.

On to `CC(C)(c1ccccc1)[C@H]1CCCN1c1nc(N2CCOCC2)cc(=O)[nH]1` [Example 196], for which the IC50 in assay [1] was 46.9 nM; on cellular ATM activity, 975 nM.

On to `O=c1cc(N2CCOCC2)cc(N2CCCCC[C@@H]2Cc2cccc3c2OCC3)[nH]1` [Example 57, (R)-6-(2-((2,3-dihydrobenzofuran-7-yl)methyl)azepan-1-yl)-4-morpholinopyridin-2(1H)-one], for which the figures for the IC50 (in assay [1]; on cellular ATM activity) were 18 nM and 292 nM, respectively.

In the case of `CC1COCCN1c1cc(=O)[nH]c(N2CCCC2Cc2ccccc2)n1` (single isomer, unassigned) [Example 339, 2-(2-benzylpyrrolidin-1-yl)-6-(3-methylmorpholino)pyrimidin-4(3H)-one], the IC50 worked out at 34.5 nM in assay [1] and 1560 nM at cellular ATM activity.

For the compound `O=c1cc(N2CCOCC2)nc(N2C[C@H]3C[C@H]3[C@@H]2Cc2ccccc2)[nH]1` [Example 213], the values for the IC50 (in assay [1]; on cellular ATM activity) were 1.1 nM and 134 nM, respectively.

On to `C[C@@H]1CN(c2cc(=O)[nH]c(N3C[C@@H]4C[C@@H]4[C@@H]3Cc3ccccc3)n2)CCO1` [Example 292, 2-((1S,2S,5R)-2-benzyl-3-azabicyclo[3.1.0]hexan-3-yl)-6-((R)-2-methylmorpholino)pyrimidin-4(3H)-one], for which the IC50 stood at 5.5 nM in assay [1] and 1310 nM at cellular ATM activity.

Take `O=c1cc(N2CCOCC2)cc(N2C[C@@H]3CC[C@@H](C3)[C@@H]2Cc2ccccc2)[nH]1` [Example 134]: the IC50 in assay [1] is 13.9 nM; at cellular ATM activity, 581 nM.

In the case of `O=c1cc(N2CCOCC2)nc(N2CCCC(F)(F)C[C@@H]2Cc2ccccc2)[nH]1` [Example 244], the IC50 turned out to be 10.2 nM in assay [1] and 273 nM at cellular ATM activity.

As to `C[C@@H]1CN(c2cc(=O)[nH]c(N3CCCCC[C@@H]3Cc3cccs3)n2)CCO1` [Example 286, 6-((R)-2-methylmorpholino)-2-((R)-2-(thiophen-2-ylmethyl)azepan-1-yl)pyrimidin-4(3H)-one], the IC50 in assay [1] stood at 24.6 nM; at cellular ATM activity, 1020 nM.

Turning to `CC1(C)CCC[C@H](Cc2ccccc2)N(c2nc(N3CCOCC3)cc(=O)[nH]2)C1` [Example 245], the half-maximal inhibitory concentration (IC50) in assay [1] was 17.3 nM; at cellular ATM activity, 1240 nM.

As to `COC[C@@H](C)Oc1cccc(C[C@H]2CCCN2c2cc(N3CCOCC3)cc(=O)[nH]2)c1` [Example 148, 6-((R)-2-(3-(((R)-1-methoxypropan-2-yl)oxy)benzyl)pyrrolidin-1-yl)-4-morpholinopyridin-2(1H)-one], the values for the IC50 (in assay [1]; on cellular ATM activity) were 41.8 nM and 1170 nM, respectively.

Turning to `C[C@@H]1CN(c2cc(=O)[nH]c(N3CCC[C@@H]3Cc3ccc(Cl)c(Cl)c3)n2)CCO1` [Example 278, 2-[(2R)-2-[(3,4-dichlorophenyl)methyl]pyrrolidin-1-yl]-4-[(2R)-2-methylmorpholin-4-yl]-1H-pyrimidin-6-one], the IC50 in assay [1] was found to be 89.7 nM; on cellular ATM activity, 969 nM.

`O=c1cc(N2CCOCC2)nc(N2CCCCC[C@@H]2Cc2cccc(F)c2F)[nH]1` [Example 223]: the figures for the IC50 (in assay [1]; on cellular ATM activity) were 26.3 nM and 512 nM, respectively.

In the case of `O=c1cc(N2CCOCC2)cc(N2CC[C@@H](F)[C@@H]2Cc2ccccc2)[nH]1` [Example 96, 6-((2S,3R)-2-benzyl-3-fluoropyrrolidin-1-yl)-4-morpholinopyridin-2(1H)-one], the IC50 was 5.5 nM in assay [1] and 270 nM at cellular ATM activity.

Turning to `O=c1cc(N2CCOCC2)cc(N2CCCCC[C@@H]2Cc2cccs2)[nH]1` [Example 31, 4-morpholino-6-[(2R)-2-(2-thienylmethyl)azepan-1-yl]-1H-pyridin-2-one], the IC50 came out at 12.3 nM in assay [1] and 260 nM at cellular ATM activity.

Consider `COc1ccccc1C[C@H]1CC2(CC2)CN1c1nc(N2CCOCC2)cc(=O)[nH]1` [Example 264, (R)-2-(6-(2-methoxybenzyl)-5-azaspiro[2.4]heptan-5-yl)-6-morpholinopyrimidin-4(3H)-one], for which the IC50 in assay [1] came to 5.3 nM; at cellular ATM activity, 350 nM.

As to `Cc1ccccc1C[C@H]1CCCCCN1c1cc(N2CCOCC2)cc(=O)[nH]1` [Example 25, (R)-6-(2-(2-methylbenzyl)azepan-1-yl)-4-morpholinopyridin-2(1H)-one], the IC50 in assay [1] amounted to 13.7 nM; on cellular ATM activity it was 530 nM.

As to `O=c1cc(N2CCOCC2)nc(N2CCCCC[C@@H]2Cc2ccccc2Cl)[nH]1` [Example 205], the IC50 was determined as 39.6 nM in assay [1] and 797 nM on cellular ATM activity.

With `O=c1cc(N2CCOCC2)cc(N2CC[C@@H](OC(F)F)[C@@H]2Cc2ccccc2)[nH]1` [Example 90, 6-((2S,3R)-2-benzyl-3-(difluoromethoxy)pyrrolidin-1-yl)-4-morpholinopyridin-2(1H)-one], the figures for the IC50 (in assay [1]; on cellular ATM activity) were 39.1 nM and 874 nM, respectively.

Regarding `O=c1cc(N2CCOCC2)nc(N2CC3(CC3)C[C@@H]2Cc2ccccc2)[nH]1` [Example 262, (S)-2-(6-benzyl-5-azaspiro[2.4]heptan-5-yl)-6-morpholinopyrimidin-4(3H)-one], the IC50 was 9.8 nM in assay [1] and 282 nM at cellular ATM activity.

Turning to `CC1OCCN(c2cc(=O)[nH]c(N3CCCC3Cc3ccccc3)n2)C1C` (single isomer, unassigned) [Example 352, 2-(2-benzylpyrrolidin-1-yl)-6-(2,3-dimethylmorpholino)pyrimidin-4(3H)-one], the IC50 was found to be 24 nM in assay [1] and 1530 nM on cellular ATM activity.

For `COc1ccccc1C[C@H]1[C@@H](F)CCN1c1nc(N2CCO[C@H](C)C2)cc(=O)[nH]1` [Example 324], the values for the IC50 (in assay [1]; at cellular ATM activity) were 5.4 nM and 1680 nM, respectively.

Take `COc1cccc(C[C@H]2CCCN2c2cc(N3CCOCC3)cc(=O)[nH]2)c1` [Example 22, (R)-6-(2-(3-methoxybenzyl)pyrrolidin-1-yl)-4-morpholinopyridin-2(1H)-one]: the IC50 in assay [1] came out at 55.3 nM; at cellular ATM activity, 2680 nM.

`O=c1cc(N2CCOCC2)cc(N2C[C@H]3C[C@H]3[C@@H]2Cc2ccccc2)[nH]1` [Example 43, 6-((1R,2S,5S)-2-benzyl-3-azabicyclo[3.1.0]hexan-3-yl)-4-morpholinopyridin-2(1H)-one]: the IC50 was determined as 9.6 nM in assay [1] and 293 nM at cellular ATM activity.

With `O=c1cc(N2CCOCC2)nc(N2CC[C@H](O)[C@@H]2Cc2ccccc2)[nH]1` [Example 255, 2-((2S,3S)-2-benzyl-3-hydroxypyrrolidin-1-yl)-6-morpholinopyrimidin-4(3H)-one], the IC50 was found to be 70.9 nM in assay [1] and 1260 nM on cellular ATM activity.

On to `Cc1cc(C[C@H]2CCCN2c2nc(N3CCO[C@H](C)C3)cc(=O)[nH]2)cc(C)n1` [Example 277, 2-[(2R)-2-[(2,6-dimethyl-4-pyridyl)methyl]pyrrolidin-1-yl]-4-[(2R)-2-methylmorpholin-4-yl]-1H-pyrimidin-6-one], for which the IC50 in assay [1] came to 57 nM; on cellular ATM activity, 417 nM.
